# Source: PubChem BioAssay (NCI)
# “And” between values parts separate entries of the source, which are not always exact repeats. Identical values can stand only once.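 Values below derive from 48-hour exposures of cells grown in 96-well plates, with endpoints linearly interpolated between the two concentrations bracketing the appropriate inhibition level. Here, GI50 denotes the concentration required for 50% inhibition of growth. TGI: concentration producing complete growth inhibition.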
# How the values were obtained:
# Assay in all cases: inhibition of tumour cell growth, NCI panel, 48 h
# DU-145 prostate = system: DU-145 prostate
# MCF7 breast = system: MCF7 breast
# NCI/ADR-RES ovarian = system: NCI/ADR-RES ovarian
# SK-MEL-2 melanoma = system: SK-MEL-2 melanoma
# T-47D breast = system: T-47D breast
# TK-10 renal = system: TK-10 renal
# KM20L2 colon = system: KM20L2 colon
# M19-MEL melanoma = system: M19-MEL melanoma
# SNB-78 CNS = system: SNB-78 CNS
# HOP-18 NSCLC = system: HOP-18 NSCLC
SMILES,GI50 (DU-145 prostate),TGI (DU-145 prostate),GI50 (MCF7 breast),TGI (MCF7 breast),GI50 (NCI/ADR-RES ovarian),TGI (NCI/ADR-RES ovarian),GI50 (SK-MEL-2 melanoma),TGI (SK-MEL-2 melanoma),GI50 (T-47D breast),TGI (T-47D breast),GI50 (TK-10 renal),TGI (TK-10 renal),TGI (KM20L2 colon) [µM],TGI (M19-MEL melanoma) [µM],TGI (SNB-78 CNS) [µM],TGI (HOP-18 NSCLC) [µM]
Clc1nc(Cl)c2ncn(Cc3ccc(COc4cccc(OCc5ccc(Cn6cnc7c(Cl)nc(Cl)nc76)cc5)c4)cc3)c2n1,18.5 µM,48.1 µM,28.9 µM,> 100 µM,39.5 µM,> 100 µM,28.2 µM,> 100 µM,21.5 µM,> 100 µM,27 µM,> 100 µM,,,,
O=C(O)c1cc(=O)c2[nH]c3ccccc3c2s1,,,,,,,,> 100 µM,,,,> 100 µM,> 100,> 100,> 100,
CC(C)NC(=O)OCCS(=O)c1c(Cl)c(Cl)nn1C (stereo not drawn),,> 100 µM,,> 100 µM,,> 100 µM,,> 100 µM,,> 100 µM,,> 100 µM,,,,
CN(C)CCOc1ccc2c(c1)C/C(=C/c1ncc([N+](=O)[O-])n1C)C2=O,,14 µM,,7.11 µM,,34.1 µM,,3.58 µM,,32.8 µM,,10.9 µM,,,,
Cc1cc(C(C#N)c2ccc(Cl)cc2)c(Cl)cc1NC(=O)c1cc(I)cc(I)c1O (stereo not drawn),14.5 µM and 15.2 µM,28.7 µM and 29.1 µM,6.58 µM and 15.7 µM,23.8 µM and 32.4 µM,4.03 µM and 15.7 µM,28.9 µM and 54.2 µM,7.82 µM and 14.9 µM,> 100 µM and 40 µM,19.1 µM and 15.2 µM,46.9 µM and 37 µM,11.8 µM and 22.4 µM,33.9 µM and 65.4 µM,,,,
CCCCn1cnc2c(SC)ncnc21,,> 100 µM,,> 100 µM,,> 100 µM,,> 100 µM,,> 100 µM,,> 100 µM,,,,
COc1ccc2c(c1)OC(N(C(C)=O)C(C)=O)=C(C#N)C2c1ccc(F)cc1 (stereo not drawn),2.85 µM,> 100 µM,0.593 µM,> 100 µM,0.953 µM,> 100 µM,1.08 µM,> 100 µM,4.98 µM,> 100 µM,17.5 µM,> 100 µM,,,,
CC(=O)Nc1ccc2c(c1)oc(=O)c1cc(NC(C)=O)ccc12,> 100 µM,> 100 µM,59.8 µM,> 100 µM,> 100 µM,> 100 µM,> 100 µM,> 100 µM,59.6 µM,> 100 µM,98.7 µM,> 100 µM,,,,
Oc1ccc(CCCCCCc2ccc(O)cc2)cc1,4.8 µM,15.2 µM,6.91 µM,22.3 µM,3.99 µM,17.4 µM,16 µM,35.5 µM,8.03 µM,27.2 µM,19.7 µM,> 57.3 µM,,,,
C[C@@H]1CN(CC(=O)N2CC(C)(C)c3nc(CO)c(Cc4ccc(F)cc4)cc32)[C@@H](CN2CCOC[C@H]2C)CN1,82.1 µM,> 100 µM,37 µM,> 100 µM,75.5 µM,> 100 µM,5.01 µM,63.9 µM,17.2 µM,47.8 µM,> 100 µM,> 100 µM,,,,
O=C1C2=C(c3ccccc31)C(c1ccccc1)NC(=S)N2 (stereo not drawn),,,,,,,,> 100 µM,,,,> 100 µM,> 100,> 100,,
CC(=O)O[C@@H]1CC2C(C)(C)CCCC2(C)C2=C1C(=O)C(C(C)C)=CC2=O (stereo partly drawn),1.09 µM,2.48 µM,1.05 µM,> 100 µM,2.96 µM,> 100 µM,0.95 µM,3.53 µM,1.49 µM,7.31 µM,2.51 µM,> 100 µM,,,,
COc1cccc(C2c3cc4c(cc3OC(O)(CO)C2C(=O)O)OCO4)c1 (stereo not drawn) (tested in a mixture with another compound),,,,,,,,> 100 µM,,,,> 100 µM,> 100,> 100,,> 100
c1cnc2[nH]cc(-c3csc(-c4cn(CCCCN5CCOCC5)c5ccccc45)n3)c2c1,2.12 µM,4.28 µM,1.56 µM,3.57 µM,2.04 µM,4.71 µM,1.94 µM,3.87 µM,1.33 µM,3.9 µM,2.77 µM,7.24 µM,,,,
CC(C)CC1=[N+]=C(NC#N)N=C(CCC(=O)Nc2ccccc2[N+](=O)[O-])C1,,,,,,,,,,,,> 100 µM,> 100,> 100,,> 100
Nc1nc2c(c(=O)[nH]1)CN(c1ccc(S(N)(=O)=O)cc1)CN2,,> 100 µM,,> 100 µM,,> 100 µM,,> 100 µM,,> 100 µM,,> 100 µM,,,,
